According to ChEMBL document CHEMBL1157012, “Neural computational prediction of oral drug absorption based on CODES 2D descriptors” (Eur J Med Chem, 2010):

Assay: Human intestinal absorption in po dosed human
Conditions: in vivo

| Structure (SMILES) | Fa |
| --- | --- |
| Cn1c(=O)c2[nH]cnc2n(C)c1=O.O [THEOPHYLLINE] | 100% |
| CNS(=O)(=O)Cc1ccc2[nH]cc(CCN(C)C)c2c1 | 57% |
| CC1COc2c(N3CCN(C)CC3)c(F)cc3c(=O)c(C(=O)O)cn1c23 (centres undefined) [OFLOXACIN] | 100% |
| CN(C)C(=O)OC1N=C(c2ccccc2)c2cc(Cl)ccc2N(C)C1=O (centres undefined) [CAMAZEPAM] | 100% |
| CC(C)(C)NC[C@H](O)COc1nsnc1N1CCOCC1 [TIMOLOL] | 95% |
| COP(=O)(OC)OC(c1ccc(Cl)cc1)P(=O)(OC)OC (centres undefined) [MIFOBATE] | 81% |
| CCn1cc(C(=O)O)c(=O)c2cc(F)c(N3CCN(C)CC3)cc21 [PEFLOXACIN] | 100% |
| COc1ccccc1N1CCN(CCCNc2cc(=O)n(C)c(=O)n2C)CC1 | 78% |
| CC1(C)S[C@@H]2[C@H](NC(=O)COc3ccccc3)C(=O)N2[C@H]1C(=O)O [PENICILLIN V] | 59% |
| CCCC(CCC)C(=O)[O-].[Na+] [VALPROATE SODIUM] | 100% |
| CCN1CCCC1CNC(=O)c1cc(S(=O)(=O)CC)ccc1OC (centres undefined) [SULTOPRIDE] | 89% |
| O=c1[nH]c2ccccc2n1CCCN1CCN(C(c2ccccc2)c2ccccc2)CC1 [OXATOMIDE] | 100% |
| CCOC(=O)[C@H](CCc1ccccc1)N[C@@H](C)C(=O)N1CCC[C@H]1C(=O)O | 66% |
| Nc1nnc(-c2cccc(Cl)c2Cl)c(N)n1 [LAMOTRIGINE] | 98% |
| Cc1cc(NC(=O)C2=C(O)c3ccccc3S(=O)(=O)N2C)no1 [ISOXICAM] | 100% |
| CN(C)C(=N)N=C(N)N [METFORMIN] | 53% |
| CC1=C(C(=O)O)N2C(=O)[C@@H](NC(=O)[C@H](N)c3ccc(O)cc3)[C@H]2SC1 [CEFADROXIL] | 100% |
| N[C@@H]1[C@H]2CN(c3nc4c(cc3F)c(=O)c(C(=O)O)cn4-c3ccc(F)cc3F)C[C@@H]12 [TROVAFLOXACIN] | 88% |
| COc1cc(N)c(Cl)cc1C(=O)NC1CCN(CCCOc2ccc(F)cc2)CC1OC (centres undefined) [CISAPRIDE] | 100% |
| CCOC(=O)C(C)(C)Oc1ccc(Cl)cc1 [CLOFIBRATE] | 97% |
| CC(C)NCC(O)c1cc(O)cc(O)c1 (centres undefined) [METAPROTERENOL] | 44% |
| Cc1cccc(C)c1NC(=O)NCCCNC(C)C | 71% |
| O=S(=O)([O-])CCS.[Na+] [MESNA] | 77% |

| Structure (SMILES) | Fa |
| --- | --- |
| Cc1cn([C@H]2C=C[C@@H](CO)O2)c(=O)[nH]c1=O [STAVUDINE] | 100% |
| CC(C)NCC(O)COc1ccc(CCNC(=O)NC(C)C)cc1 (centres undefined) [PAFENOLOL] | 29% |
| Cc1nnc2n1-c1ccc(Cl)cc1C(c1ccccc1)=NC2 [ALPRAZOLAM] | 90% |
| Nc1cc(N2CCCCC2)nc(N)[n+]1[O-] [MINOXIDIL] | 98% |
| CC1=C(CC(=O)O)c2cc(F)ccc2/C1=C\c1ccc([S+](C)[O-])cc1 (centres undefined) | 90% |
| O=C(C1CCCCC1)N1CC(=O)N2CCc3ccccc3C2C1 (centres undefined) [PRAZIQUANTEL] | 100% |
| CO/N=C(\C(=O)N[C@@H]1C(=O)N2C(C(=O)O)=CCS[C@H]12)c1csc(N)n1 [CEFTIZOXIME] | 72% |
| CN(C)CCCN1c2ccccc2CCc2ccccc21 [IMIPRAMINE] | 100% |
| CC(=O)OCC(CCn1cnc2cnc(N)nc21)COC(C)=O [FAMCICLOVIR] | 77% |
| O=C1NS(=O)(=O)c2ccccc21 [SACCHARIN] | 88% |
| C=C[C@H]1C[N@@]2CC[C@H]1C[C@@H]2[C@@H](O)c1ccnc2ccc(OC)cc12 [QUINIDINE] | 81% |
| NC(=O)OCC(COC(N)=O)c1ccccc1 [FELBAMATE] | 90% |
| O=C1NC(=O)C(c2ccccc2)(c2ccccc2)N1 [PHENYTOIN] | 90% |
| CCN(CC)CCC1(c2ccccc2)CCC(=O)NC1=O (centres undefined) [PHENGLUTARIMIDE] | 100% |
| CCOC(=O)C1=C(C)NC(C)=C(C(=O)OC)C1c1cccc(Cl)c1Cl (centres undefined) [FELODIPINE] | 88% |
| N[C@@H](C(=O)N[C@@H]1C(=O)N2C(C(=O)O)=C(CSc3c[nH]nn3)CS[C@H]12)c1ccc(O)cc1 [CEFATRIZINE] | 75% |
| Cn1c(=O)c2c(ncn2CCCNCC(O)c2cc(O)cc(O)c2)n(C)c1=O (centres undefined) [REPROTEROL] | 60% |
| COc1cc(C)c([S+](C)[O-])cc1OC (centres undefined) [TOLMESOXIDE] | 98% |
| Cc1nccn1CC1CCc2c(c3ccccc3n2C)C1=O (centres undefined) [ONDANSETRON] | 100% |
| COc1cccc2c1C(=O)c1c(O)c3c(c(O)c1C2=O)C[C@@](O)(C(=O)CO)C[C@@H]3O[C@H]1C[C@H](N)[C@H](O)[C@H](C)O1 [DOXORUBICIN] | 12% |
| C[C@@H]1O[C@@H]1P(=O)(O)O [FOSFOMYCIN] | 31% |
| N=C(N)N/N=C/c1c(Cl)cccc1Cl [GUANABENZ] | 80% |
| CC(C)NCC(O)COc1ccc(CCOCC2CC2)cc1 (centres undefined) [BETAXOLOL] | 90% |

| Structure (SMILES) | Fa |
| --- | --- |
| O=C(c1ccccc1)c1ccc2n1CCC2C(=O)O (centres undefined) [KETOROLAC] | 90% |
| CC(C)(C)NCC(O)COc1cccc2c1CC(O)C(O)C2 (centres undefined) [NADOLOL] | 57% |
| C#C[C@]1(O)CC[C@H]2[C@@H]3CCC4=CC(=O)CC[C@@H]4[C@H]3CC[C@@]21CC [LEVONORGESTREL] | 100% |
| COc1cccc(C(=O)CCN[C@@H](C)[C@H](O)c2ccccc2)c1 [OXYFEDRINE] | 84% |
| O=c1[nH]c(=O)n([C@@H]2O[C@H](CO)[C@@H](O)[C@@H]2O)cc1/C=C/Br [SORIVUDINE] | 82% |
| COc1nc(C)nc(Cl)c1N=C1NCCN1 [MOXONIDINE] | 87% |
| NCC1(CC(=O)O)CCCCC1 [GABAPENTIN] | 59% |
| C[C@]12C=CC(=O)C=C1CC[C@@H]1[C@@H]2[C@@H](O)C[C@@]2(C)[C@H]1CC[C@]2(O)C(=O)CO [PREDNISOLONE] | 99% |
| CCC(=O)C(CC(C)N(C)C)(c1ccccc1)c1ccccc1 (centres undefined) [METHADONE] | 80% |
| C[C@](N)(Cc1ccc(O)c(O)c1)C(=O)O [METHYLDOPA] | 41% |
| C[C@H](CS)C(=O)N1CCC[C@H]1C(=O)O [CAPTOPRIL] | 84% |
| Cc1cccc(C)c1OCC(C)N (centres undefined) [MEXILETINE] | 100% |
| N[C@@H]1CON=C1O [CYCLOSERINE] | 73% |
| OC[C@H]1O[C@@H](O[C@@H]2[C@@H](CO)O[C@](O)(CO)[C@H]2O)[C@H](O)[C@@H](O)[C@H]1O [LACTULOSE] | 1% |
| Cc1c(OCC(F)(F)F)ccnc1C[S+]([O-])c1nc2ccccc2[nH]1 (centres undefined) [LANSOPRAZOLE] | 85% |
| C[C@H]1[C@H](NC(=O)/C(=N\OC(C)(C)C(=O)O)c2csc(N)n2)C(=O)N1S(=O)(=O)O [AZTREONAM] | 1% |
| CN(Cc1cnc2nc(N)nc(N)c2n1)c1ccc(C(=O)N[C@@H](CCC(=O)O)C(=O)O)cc1 [METHOTREXATE] | 70% |
| CCOC(=O)C1=C(C)NC(C)=C(C(=O)OC)C1c1cccc([N+](=O)[O-])c1 (centres undefined) [NITRENDIPINE] | 88% |
| COc1cc2nc(N3CCN(C(=O)C4CCCO4)CC3)nc(N)c2cc1OC (centres undefined) [TERAZOSIN] | 90% |
| CCOc1ccccc1OCC1CNCCO1 (centres undefined) [VILOXAZINE] | 98% |
| CC(C(=O)O)c1cccc(C(=O)c2ccccc2)c1 (centres undefined) [KETOPROFEN] | 92% |
| Cc1ccsc1C(=CCCN1CCC[C@@H](C(=O)O)C1)c1sccc1C [TIAGABINE] | 90% |
| O=C1Cc2cc(CCN3CCN(c4nsc5ccccc45)CC3)c(Cl)cc2N1 [ZIPRASIDONE] | 60% |
